Data published in patent publication US9127024B2 (Intrexon Corporation, priority 2013, dated 2015).

Assays:
in vivo = details: female, Sprague Dawley, rat, po, 10 mg/kg
Description: (§1) Female Sprague Dawley rats were fasted for at least 8 hours (overnight) prior to oral dosing of the compound via gavage (10 mg/kg; vehicle=2 mg/mL of Capryol 90/Triacetin (1:1, v/v); 3 animals/compound) and weighed prior to dosing. The correct volume of the appropriate formulation was administered based on that day's (animal) body weight. Body weight, dose volume, and dosing time was recorded for each animal. Animals were not fed for at least 4 hours following activator ligand administration.
(§2) Approximately 200 μL/blood sample was collected from the catheter sample points in EDTA tubes at each time point from each animal. The exact time of blood collection was recorded for each animal Blood samples were held at 4° C. (wet ice) starting immediately after collection and were centrifuged within 15 minutes from the collection for 12 minutes at 2500 rpm. After centrifugation, plasma samples were stored at ^−80° C. until assay. Sample times were as follows: Day 0: 0, 0.5, 1, 2, 3, 4, 6 and 8 hours; Day 1: 24 hours.
(§3) LC-MS/MS Method: Liquid chromatography tandem mass spectrometry with protein precipitation method was used to quantify the compound in rat plasma samples collected from all animals dosed with the ligand. Linearity range was from 1 ng/mL to 1000 ng/mL, with correlation coefficient for calibration curves above 0.99 and analyte quantified within ±15% of target at all calibrator concentrations.
(§4) The plasma ligand concentration was calculated by extrapolating the area under the curve values for the samples from the standard curve generated by the Analyst® software program. The ng/mL values for the plasma samples representing all the animals were used to generate the pharmacokinetic (PK) parameters.

[1] = target: RheoSwitch® (CHO-K1_RS-1 cells, firefly Luciferase reporter) (Choristoneura fumiferana, UniProt O77240); experiment: in vitro gene switch assay (fLUC Luciferase expression, potency screen); format: cell-based; details: read-out: fLUC assay EC50, 24 hours with compound, 25 μM to 2.5 pM, figure in parentheses after a value not defined
Description: Gene switch assays are disclosed, e.g., in U.S. Pat. Nos. 8,076,517; 7,456,315; 7,304,161; and 6,258,603.
CHO-K1 cells were stably transfected with a plasmid (RS-1, FIG. 1) coding for firefly Luciferase (fLUC) under the control of the RheoSwitch® resulting in the stable cell line CHO-K1_RS-1. A master cell bank was created containing approximately 100 vials at 5×10^6 cells per vial. One vial of CHO-K1_RS-1 was thawed and cultured for two weeks prior to each in vitro potency screening.
Twenty-four (24) hours prior to treatment with the control and test compounds the CHO-K1_RS-1 cells were seeded into white-opaque 384-well cell culture plates at 3,600 cells per well in 30 μl of culture medium. The cells were incubated in a humidified CO2 incubator at 37° C. until compound treatment.
Compounds were prepared at 25 mM in 100% dry DMSO and stored at room temperature in sealed 1 ml tubes prior to subsequent dilution and assay. On the day of cell treatment the tubes containing the control and test compounds were sorted and the ligands transferred to a 96-well polypropylene plate for subsequent dilution. The compounds were diluted in 100% dry DMSO in an 8-point, 10-fold dilution series ranging from 25 mM to 2.5 nM using the Biomek FX automated liquid handler.
The diluted compounds were then transferred to each well of 384-well polypropylene plate in quadruplicate resulting in a single 384-well plate with four replicates of each compound dilution in a different quadrant of the plate. Each well on the 384-well plate received 20 μl of diluted compound. The 384-well plates containing diluted compound and the plates containing cells in culture were loaded onto the Biomek FX and 30 nl of compound was delivered to each well containing cells using a 384-pin V&P Scientific Pin Tool. The resulting 1000-fold dilution (30 nl to 30 μl) generated a final dosing range of 25 μM to 2.5 pM in 0.1% DMSO. Two replicate plates were produced to supply a dedicated plate for the Luciferase expression assay and the APH cell viability assay.
The cells were incubated with the compound for 24 hours in a humidified CO2 incubator at 37° C. Following incubation, the cells were assayed for Luciferase expression (fLUC assay) using the Steady Glo assay from Promega. Cells were equilibrated to room temperature for 15 minutes prior to reagent addition. Thirty micro liters (30 μl) of assay reagent was added to each well of the 384-well plate using the Biomek FX. The reagent was incubated with the cells for 10-120 minutes prior to reading on a Molecular Devices Spectramax L luminometer. The assay reagents were prepared as per the manufacturer's instructions.
The Luciferase expression data was normalized to the baseline signal from cells treated with DMSO alone. The ratio of signal from treated cells to vehicle-treated cells was plotted and non-linear regress was performed using Graph Pad Prism software. EC50, (log)EC50 and Hill slope data was generated. Reporter gene expression, e.g., luciferase expression, serves as a proxy for the expression of a gene of interest. See, e.g., US 2009/0123441 and WO 2011/119773.

[2] = Pharmacokinetic (PK) study, oral gavage, plasma LC-MS/MS; details: female Sprague Dawley rats, oral gavage 10 mg/kg, Capryol 90/Triacetin (1:1, v/v); for AUC(0-t): AUC0−t; for Clearance: oral clearance
Description: as §1, §2, §3, §4

[3] = female, Sprague Dawley, rat, po, 10 mg/kg
[4] = female, Sprague Dawley, rat, po, 10 mg/kg, Cmax
[5] = female, Sprague Dawley, rat, po, 10 mg/kg, Tmax
[6] = female, Sprague Dawley, rat, po, 10 mg/kg, half-life
[7] = listed as Cpd. No. 59 (Lot # 1), 10 mg/kg
[8] = listed as Cpd. No. 59 (Lot # 2), 10 mg/kg

RheoSwitch® (CHO-K1_RS-1 cells, firefly Luciferase reporter), sequence (O77240 1-513): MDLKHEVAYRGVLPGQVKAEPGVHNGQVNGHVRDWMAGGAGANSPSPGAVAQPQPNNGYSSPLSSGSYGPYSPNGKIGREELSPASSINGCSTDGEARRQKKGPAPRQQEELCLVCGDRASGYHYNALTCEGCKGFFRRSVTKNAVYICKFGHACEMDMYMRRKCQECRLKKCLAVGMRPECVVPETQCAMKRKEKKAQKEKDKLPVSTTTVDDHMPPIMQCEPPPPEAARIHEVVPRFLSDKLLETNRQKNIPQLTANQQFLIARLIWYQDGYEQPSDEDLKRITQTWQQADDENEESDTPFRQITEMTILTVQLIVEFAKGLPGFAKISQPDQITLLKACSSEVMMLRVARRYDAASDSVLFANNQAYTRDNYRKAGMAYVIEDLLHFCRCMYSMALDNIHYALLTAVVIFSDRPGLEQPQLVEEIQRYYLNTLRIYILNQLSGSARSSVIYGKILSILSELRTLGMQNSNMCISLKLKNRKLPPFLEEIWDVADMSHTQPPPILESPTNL

Row | SMILES | AUC(0-t) (in vivo; AUC0−t) | Cmax (in vivo; Cmax) | Tmax (in vivo; Tmax) | EC50 [1] | AUC(0-t) [2, 3] | Cmax [2, 4] | Tmax [2, 5] | half-life [2, 6] | Clearance [2] | AUC0−t [2, 7] | Tmax [2, 7] | AUC0−t [2, 8] | Cmax [2, 8] | Tmax [2, 8] | half-life [2, 8] | Clearance [2, 7] | Clearance [2, 8]
1 | Cc1cc(C)cc(C(=O)N(NC(=O)c2ccc3c(c2C)OCCO3)C(C)(C)C)c1 [Cpd. C] | 510 ng·h/mL | 112 ng/mL | 2.5 h |  |  |  |  |  |  |  |  |  |  |  |  |  | 
2 | Cc1cc(C)cc(C(=O)N(NC(=O)c2ccc3c(c2F)B(O)OC3)C(C)(C)C)c1 [Cpd. No. 58, N′-(tert-butyl)-N′-(3,5-dimethylbenzoyl)-7-fluoro-1-hydroxy-1,3-dihydrobenzo[c][1,2]oxaborole-6-carbohydrazide] |  |  |  | 640 nM | 30800 ng·h/mL | 2650 ng/mL | 3 h | 15.4 h | 3.57 mL/min/kg |  |  |  |  |  |  |  | 
3 | CC[C@@H](N(NC(=O)c1ccc2c(c1F)B(O)OC2)C(=O)c1cc(C)cc(C)c1)C(C)(C)C [Cpd. No. 59, (R)—N′-(3,5-dimethylbenzoyl)-N′-(2,2-dimethylpentan-3-yl)-7-fluoro-1-hydroxy-1,3-dihydrobenzo[c][1,2]oxaborole-6-carbohydrazide] |  |  |  | 108 nM |  | 11200 ng/mL |  | 5.2 h |  | 127700 ng·h/mL | 5 h | 300721 ng·h/mL | 18833 ng/mL | 1.8 h | 10.0 h | 1.4 mL/min/kg | 0.538 mL/min/kg
4 | CC[C@@H](N(NC(=O)c1ccc2c(c1F)COB2O)C(=O)c1cc(C)cc(C)c1)C(C)(C)C [Cpd. No. 67, (R)—N′-(3,5-dimethylbenzoyl)-N′-(2,2-dimethylpentan-3-yl)-4-fluoro-1-hydroxy-1,3-dihydrobenzo[c][1,2]oxaborole-5-carbohydrazide] |  |  |  | 309 nM | 24500 ng·h/mL | 3320 ng/mL | 3 h | 5.5 h | 6.63 mL/min/kg |  |  |  |  |  |  |  | 
